For 17 compounds, IC50 results are on record in US12662491B2 (Redona Therapeutics, Inc., priority 2020, dated 2026).

The experiment addresses T1, Zcchc11 enzyme (Homo sapiens, UniProt Q5TAX3).
T1 construct: made in house; host or cells: HEK293 cells (Zcchc11); E. coli Rosetta II (LIN28A)
T1 sequence (Q5TAX3 212-1420): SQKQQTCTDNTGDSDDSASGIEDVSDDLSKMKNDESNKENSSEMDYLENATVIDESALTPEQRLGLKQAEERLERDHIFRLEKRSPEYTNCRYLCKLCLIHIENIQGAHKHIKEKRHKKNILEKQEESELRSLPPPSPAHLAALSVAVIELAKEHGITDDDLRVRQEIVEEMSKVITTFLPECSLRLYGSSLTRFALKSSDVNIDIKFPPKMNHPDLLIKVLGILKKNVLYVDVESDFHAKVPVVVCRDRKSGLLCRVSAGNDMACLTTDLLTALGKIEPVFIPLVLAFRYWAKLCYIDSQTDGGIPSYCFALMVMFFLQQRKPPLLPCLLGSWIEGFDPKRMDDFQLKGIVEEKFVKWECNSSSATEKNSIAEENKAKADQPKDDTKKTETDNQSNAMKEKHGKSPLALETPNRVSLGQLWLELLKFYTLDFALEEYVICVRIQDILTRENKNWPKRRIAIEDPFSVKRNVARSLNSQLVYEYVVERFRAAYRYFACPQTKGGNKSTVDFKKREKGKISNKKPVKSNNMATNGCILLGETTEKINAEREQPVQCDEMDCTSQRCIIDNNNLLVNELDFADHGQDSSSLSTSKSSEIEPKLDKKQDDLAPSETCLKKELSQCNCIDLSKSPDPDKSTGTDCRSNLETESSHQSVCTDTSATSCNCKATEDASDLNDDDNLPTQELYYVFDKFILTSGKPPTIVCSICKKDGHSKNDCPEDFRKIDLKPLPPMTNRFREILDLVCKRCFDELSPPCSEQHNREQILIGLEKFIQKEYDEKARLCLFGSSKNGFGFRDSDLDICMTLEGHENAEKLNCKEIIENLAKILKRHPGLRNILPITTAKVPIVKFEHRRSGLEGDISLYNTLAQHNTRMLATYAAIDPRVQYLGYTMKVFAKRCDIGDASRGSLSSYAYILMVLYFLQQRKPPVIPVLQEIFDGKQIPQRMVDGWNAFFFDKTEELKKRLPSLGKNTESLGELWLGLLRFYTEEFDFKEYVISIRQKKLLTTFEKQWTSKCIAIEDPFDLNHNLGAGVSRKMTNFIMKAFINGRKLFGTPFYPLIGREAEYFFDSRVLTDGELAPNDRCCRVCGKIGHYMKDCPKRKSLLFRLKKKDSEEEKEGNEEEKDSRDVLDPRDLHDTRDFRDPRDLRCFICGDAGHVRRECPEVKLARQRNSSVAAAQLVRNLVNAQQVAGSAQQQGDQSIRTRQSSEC
Nature of the experiment: TUTase assay (Zcchc11 assay, Lin28a-dependent polyuridylation of pre-let-7). The settings on record: Lin28a-dependent Zcchc11 (Z11) TUTase activity; read-out: Potency Lin28a-dep Z11 IC50. Format: biochemical. In a few lines:
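LIN28A (10 nM) in pH 7.3 HEPES/KCl/MgCl2/DTT buffer was mixed with serially diluted compound, then 0.2 nM truncated human Zcchc11 and 2 nM labeled pre-let-7 were added for 30 min at room temperature. UTP (5 uM) and quench probe (4 nM) then started the reaction. Linear early rates gave IC50 values.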
In the case of `CN(C)C1CN(c2ccc(-n3cc(C(=O)O)c(=O)c4cc(Cl)c(N5CC(C)(C)C[C@@H]5COc5ncccc5Cl)cc43)cn2)C1` [Compound 254, 6-chloro-7-[(2R)-2-[[(3-chloropyridin-2-yl)oxy]methyl]-4,4-dimethyl-pyrrolidin-1-yl]-1-[6-[3-(dimethyl-amino)azetidin-1-yl]pyridin-3-yl]-4-oxoquinoline-3-carboxylic acid], the IC50 (in general, the concentration needed to halve the response being measured) was not above 1000 nM.
`CN(C)C1CN(c2ccc(-n3cc(C(=O)O)c(=O)c4cc(Cl)c(N5CCC[C@@H]5COc5ncc6nc[nH]c6c5Cl)cc43)cn2)C1` [Compound 255, 6-chloro-7-[(2R)-2-[({7-chloro-1H-imidazo [4,5-c]pyridin-6-yl}oxy)methyl]pyrrolidin-1-yl]-1-{6-[3-(dimethyl-amino)azetidin-1-yl]pyridin-3-yl}-4-oxoquinoline-3-carboxylic acid]: the IC50 is not above 1000 nM.
As for `CN(C)C1CN(c2ccc(-n3cc(C(=O)O)c(=O)c4cc(Cl)c(N5CCC[C@@H]5COc5nc6ccn(C)c6cc5Cl)cc43)cn2)C1` [Compound 256, 6-chloro-7-[(2R)-2-[([6-chloro-1-methyl-pyrrolo [3,2-b]pyridin-5-yl]oxy)methyl]pyrrolidin-1-yl]-1-[6-[3-(dimethyl-amino)azetidin-1-yl]pyridin-3-yl]-4-oxoquinoline-3-carboxylic acid], the figure is not above 1000 nM; as for `COc1ccc(Cl)c(OCC2N(c3cc4c(cc3Cl)c(=O)c(C(=O)O)cn4-c3ccc(N4CC(N(C)C)C4)nc3)CCC2(C)C)n1` (centres unmarked) [Compound 257, 6-chloro-7-(2-{[(3-chloro-6-methoxy-pyridin-2-yl)oxy]methyl}-3,3-dimethyl-pyrrolidin-1-yl)-1-{6-[3-(dimethyl-amino)azetidin-1 yl]pyridin-3-yl}-4-oxoquinoline-3-carboxylic acid], not above 1000 nM.
With `COc1ccc(Cl)c(OCC23CC(CN2c2cc4c(cc2Cl)c(=O)c(C(=O)O)cn4-c2ccc(N4CC(N(C)C)C4)nc2)C3)n1` [Compound 258, 6-chloro-7-(1-(((3-chloro-6-methoxy-pyridin-2-yl)oxy)methyl)-2-azabicyclo [2.1.1]hexan-2-yl)-1-(6-(3-(dimethyl-amino)azetidin-1-yl)pyridin-3-yl)-4-oxo-1,4-dihydro-quinoline-3-carboxylic acid], the IC50 lay within 1000 to 10000 nM.
As for `CN(C)C1CN(c2ccc(-n3cc(C(=O)O)c(=O)c4cc(Cl)c(N5CCC(C)(C)C5COc5ncccc5Cl)cc43)cn2)C1` (centres unmarked) [Compound 259, 6-chloro-7-(2-(((3-chloropyridin-2-yl)oxy)methyl)-3,3-dimethyl-pyrrolidin-1-yl)-1-(6-(3-(dimethyl-amino)azetidin-1-yl)pyridin-3-yl)-4-oxo-1,4-dihydro-quinoline-3-carboxylic acid], the figure is not above 1000 nM; as for `CN(C)C1CN(c2ccc(-n3cc(C(=O)O)c(=O)c4cc(C#N)c(N5C(COc6ncccc6F)CCC5(C)C)cc43)cn2)C1` (centres unmarked) [Compound 264, 6-cyano-1-(6-(3-(dimethyl-amino)azetidin-1-yl)pyridin-3-yl)-7-(5-(((3-fluoropyridin-2-yl)oxy)methyl)-2,2-dimethyl-pyrrolidin-1-yl)-4-oxo-1,4-dihydro-quinoline-3-carboxylic acid], 1000 to 10000 nM; as for `COc1ccnc(OC[C@H]2C[C@H]3C[C@H]3N2c2cc3c(cc2F)c(=O)c(C(=O)O)cn3-c2ccc(N(C)C)nc2)c1Cl` [Compound 265, 7-((1R,3R,5R)-3-(((3-chloro-4-methoxy-pyridin-2-yl)oxy)methyl)-2-azabicyclo [3.1.0]hexan-2-yl)-1-(6-(dimethyl-amino)pyridin-3-yl)-6-fluoro-4-oxo-1,4-dihydro-quinoline-3-carboxylic acid], not above 1000 nM.
As for `COc1ccc(F)c(OC[C@H]2C[C@H]3C[C@H]3N2c2cc3c(cc2Cl)c(=O)c(C(=O)O)cn3-c2ccc(N(C)C)nc2)n1` [Compound 266, 6-chloro-1-(6-(dimethyl-amino)pyridin-3-yl)-7-((1R,3R,5R)-3-(((3-fluoro-6-methoxy-pyridin-2-yl)oxy)methyl)-2-azabicyclo [3.1.0]hexan-2-yl)-4-oxo-1,4-dihydro-quinoline-3-carboxylic acid], the figure is not above 1000 nM; as for `COc1ccnc(OC[C@H]2C[C@H]3C[C@H]3N2c2cc3c(cc2Cl)c(=O)c(C(=O)O)cn3-c2ccc(N(C)C)nc2)c1Cl` [Compound 267, 6-chloro-7-((1R,3R,5R)-3-(((3-chloro-4-methoxy-pyridin-2-yl)oxy)methyl)-2-azabicyclo [3.1.0]hexan-2-yl)-1-(6-(dimethyl-amino)pyridin-3-yl)-4-oxo-1,4-dihydro-quinoline-3-carboxylic acid], not above 1000 nM; as for `COc1ccc(F)c(OC[C@H]2C[C@H]3C[C@H]3N2c2cc3c(cc2F)c(=O)c(C(=O)O)cn3-c2ccc(N(C)C)nc2)n1` [Compound 268, 1-(6-(dimethyl-amino)pyridin-3-yl)-6-fluoro-7-((1R,3R,5R)-3-(((3-fluoro-6-methoxy-pyridin-2-yl)oxy)methyl)-2-azabicyclo [3.1.0]hexan-2-yl)-4-oxo-1,4-dihydro-quinoline-3-carboxylic acid], not above 1000 nM.
In the case of `CN(C)C1CN(c2ccc(-n3cc(C(=O)O)c(=O)c4cc(Cl)c(N5[C@@H](COc6nc(OC7CC7)ccc6Cl)C[C@H]6C[C@H]65)cc43)cn2)C1` [Compound 270, 6-chloro-7-((1R,3R,5R)-3-(((3-chloro-6-cycloprop-oxypyridin-2-yl)oxy)methyl)-2-azabicyclo [3.1.0]hexan-2-yl)-1-(6-(3-(dimethyl-amino)azetidin-1-yl)pyridin-3-yl)-4-oxo-1,4-dihydro-quinoline-3-carboxylic acid], the IC50 is not above 1000 nM.
The result for `CN(C)C1CN(c2ccc(-n3cc(C(=O)O)c(=O)c4cc(Cl)c(N5C6CC6C[C@@H]5COc5nc(OC6CC6)ccc5Cl)cc43)cn2)C1` (stereo partly drawn) [Compound 271, 6-chloro-7-((3R)-3-(((3-chloro-6-cycloprop-oxypyridin-2-yl)oxy)methyl)-2-azabicyclo [3.1.0]hexan-2-yl)-1-(6-(3-(dimethyl-amino)azetidin-1-yl)pyridin-3-yl)-4-oxo-1,4-dihydro-quinoline-3-carboxylic acid] reads not above 1000 nM.
With `CN(C)C1CN(c2ccc(-n3cc(C(=O)O)c(=O)c4cc(Cl)c(N5CCC(C)(C)C5COc5nc(OC6CC6)ccc5Cl)cc43)cn2)C1` (centres unmarked) [Compound 272, 6-chloro-7-(2-(((3-chloro-6-cycloprop-oxypyridin-2-yl)oxy)methyl)-3,3-dimethyl-pyrrolidin-1-yl)-1-(6-(3-(dimethyl-amino)azetidin-1-yl)pyridin-3-yl)-4-oxo-1,4-dihydro-quinoline-3-carboxylic acid], the IC50 is not above 1000 nM.
As for `CN(C)C1CN(c2ccc(-n3cc(C(=O)O)c(=O)c4cc(Cl)c(N5CCC[C@@H]5COc5nc6ncn(C)c6cc5Cl)cc43)cn2)C1` [Compound 273, (R)-6-chloro-7-(2-(((6-chloro-1-methyl-1H-imidazo [4,5-b]pyridin-5-yl)oxy)methyl)pyrrolidin-1-yl)-1-(6-(3-(dimethyl-amino)azetidin-1-yl)pyridin-3-yl)-4-oxo-1,4-dihydro-quinoline-3-carboxylic acid formic acid], the figure is not above 1000 nM; as for `CN(C)C1CN(c2ccc(-n3cc(C(=O)O)c(=O)c4cc(Cl)c(N5CC(OC6CC6)C[C@@H]5COc5ncccc5Cl)cc43)cn2)C1` (stereo partly drawn) [Compound 275, 6-chloro-7-((2R)-2-(((3-chloropyridin-2-yl)oxy)methyl)-4-cycloprop-oxypyrrolidin-1-yl)-1-(6-(3-(dimethyl-amino)azetidin-1-yl)pyridin-3-yl)-4-oxo-1,4-dihydro-quinoline-3-carboxylic acid], not above 1000 nM; as for `CN(C)C1CN(c2ccc(-n3cc(C(=O)O)c(=O)c4cc(Cl)c(N5CC(c6cn(C)cn6)C[C@@H]5COc5ncccc5Cl)cc43)cn2)C1` (stereo partly drawn) [Compound 276, 6-chloro-7-((2R)-2-(((3-chloropyridin-2-yl)oxy)methyl)-4-(1-methyl-1H-imidazol-4-yl)pyrrolidin-1-yl)-1-(6-(3-(dimethyl-amino)azetidin-1-yl)pyridin-3-yl)-4-oxo-1,4-dihydro-quinoline-3-carboxylic acid], not above 1000 nM.
